Results taken from patent publication US4980163A, “Novel bacteriocin compositions for use as enhanced broad range bactericides and methods of preventing and treating microbial infection” (Public Health Research Institute of the City of New York, priority 1989, dated 1990).
Values joined by “and” are separate entries in the source; they are usually repeats but may differ in a detail not shown here. Equal values may be shown once. Where no end group is shown, it is not given here.

Tested on: Staphylococcus aureus
Test: Bactericidal activity in milk, percent bacterial survival (Example 1, Table 1)
Format: cell-based
Settings: for % survival 2 hr: initial viable counts 5 × 10^7 cfu/ml
Procedure: All tests in the following examples were performed at 37° C. The efficacy of the enhanced broad range bactericides was determined by assaying bactericidal activity as measured by the percent bacterial survival after treatment with the bactericide. Generally, after incubation of a 10^7 cell per ml suspension of target species with the novel bactericide for specified lengths of time, bacteria were collected by centrifugation for 2 minutes. The bacterial pellet was washed free of the bactericide with a rescue buffer, termed herein Phage buffer (50 mM Tris-HCl buffer pH 7.8, 1 mM MgSO4, 4 mM CaCl2, 0.1M NaCl, and 0.1% gelatin), resuspended and serially diluted into Phage buffer, and 100 μl of the suspended bacteria were spread on nutrient agar plates. Surviving bacteria were determined by scoring colony forming units (CFU) after incubation for 24-48 hours at 37° C. An effective bactericide according to this invention is one which allows less than 0.1% of the initial viable count of the bacteria to survive.
Staphylococcus aureus cells were suspended and incubated in milk at 37° C. for 2 hours with various concentrations of lysostaphin, nisin, or a combination of lysostaphin and nisin in the milk. The bactericidal efficacy of the bactericides was estimated by determining the percent survival of bacteria as described above.

Substance	% survival 2 hr (Nisin 0.2 μg/ml, Lysostaphin 0, milk, 37° C.) [%]	% survival 2 hr (Nisin 0.5 μg/ml, Lysostaphin 0, milk, 37° C.) [%]	% survival 2 hr (Nisin 1.0 μg/ml, Lysostaphin 0, milk, 37° C.) [%]	% survival 2 hr (Nisin 2.0 μg/ml, Lysostaphin 0, milk, 37° C.)	% survival 2 hr (Nisin 4.0 μg/ml, Lysostaphin 0, milk, 37° C.) [%]	bactericidal activity in milk (in words) (milk, 37° C.)	% survival 2 hr (Lysostaphin 1.0 μg/ml, Nisin 0, milk, 37° C.)	log reduction in viable cells (Lysostaphin alone 1.0 μg/ml in milk)
Nisin (ITSISLCTPGCKTGALMGCNMKTATCHCSIHVSK; also: lantibiotic nisin-A: lanthionine rings and dehydrated residues, places not given here; UniProt P13068 24-57, looked up) [lanthionine containing peptide bacteriocin produced by Streptococcus lactis]	45	33	9	2.5% and 0.5%	0.5	little practical bactericidal activity		
Lysostaphin							< 10^-3%	more than a five log reduction
